# Experimental data reported in article PMC8901748, “A novel prostaglandin E receptor 4 (EP4) small molecule antagonist induces articular cartilage regeneration” (Cell Discovery, 2022).
# Experiments:
# [1] = test system: Col2a1, Acan, Mmp3, Mmp9, Mmp13 expression in primary mouse chondrocytes; experiment: qRT-PCR of anabolic and catabolic factors in primary chondrocytes; format: cell-based
# Protocol: ATDC5 cell line was purchased from Riken BioResource Center (Tsukuba, Japan) and grown in a 1:1 mixture of DMEM/F12 medium (Corning, 10-092-CVR) supplemented with 5% fetal bovine serum (Gibco, 10099, USA) and 1% penicillin-streptomycin solution (Life Technologies). Cells were maintained at 37 °C under 5% CO2. Primary chondrocytes were obtained from knee joint cartilage of newborn mice. Knee joints were dissected from the tibia plateau and femoral condyle articular cartilage of mouse pups and digested in 0.1% collagenase type II (Sigma) overnight at 37 °C and chondrocytes were harvested by centrifugation. Primary chondrocytes were cultured at a density of 5 × 10^3 cells per ml at 37 °C with 5% CO2. DMEM/F12 medium with 10% fetal bovine serum (FBS) and 1% penicillin–streptomycin was used to culture the primary chondrocytes. Chondrogenic differentiation were induced with chondrogenic medium, which contains insulin-transferrin-selenium (ITS) (Sigma, I3146), 10 ng/ml TGF-β3 (PEPROTECH, 100-36E, USA), 100 nM Dexamethasone (Sigma, D4902), 50 μg/ml VC (Sigma), 1 mM sodium pyruvate (Sigma) and 40 μg/ml proline (Sigma), and/or treatment with rmIL-1β (R&D, 401-ML/CF), TNFα (PEPROTECH, 300-01A-50) in DMEM/F12 for indicated days. Western blotting was performed according to standard protocols. Antibodies used were: rabbit anti-Mmp3 (1:1000, HuaBio), rabbit anti-Mmp13 (1:500, abcam, ab39012), rabbit anti-p-CREB (1:2000, Cell Signaling Technology, 87G3), rabbit anti-CREB (1:2000, Cell Signaling Technology, 48H2), mouse anti-GAPDH (1:5000; Sigma-Aldrich, G8795), rabbit anti-Col2 (Abcam, Ab34712), rabbit anti-STAT3 (1:2000; Abcam, ab68153), rabbit anti-p-STAT3 (Y705) (1:2000; Abcam, ab76315), rabbit anti -p65 (1:1000; CST, 3034), rabbit anti-p-p65 (1:1000; CST, 3033), and rabbit anti-IκBα (1:1000; Abways, CY5026).
# (§1) Quantitative RT-PCR was performed to measure the relative mRNA levels. RNA samples were prepared from the chondrocytes using Trizol (Takara). cDNA was generated using the Prime Script RT reverse transcriptase kit (Yeasen, Drr036a). Primers used for amplification were shown in Supplementary Table S1, GAPDH was used as the house keeping gene.
# [2] = test system: 4 × 48-p89-Luc (Sox9 binding enhancer, Col2a1 minimal promoter) in ATDC5 cells; experiment: 4 × 48-p89-Luc luciferase reporter assay; format: cell-based, mouse
# Protocol: (§2) Six firefly luciferase reporters were used in the Luciferase assay, including CRE-Luc (PathDetect CRE cis-Reporting System; Stratagene, La Jolla CA) driven by a basic promoter (TATA box) plus four repeats of CRE; Sox9 promoter-Luc contains human SOX9 proximal promoter region (−1034 bp to +67 bp)[45]; 4 × 48-p89-Luc, mouse Col2a1 minimal promoter. AP-1-Luc, Nf-κb-Luc, STAT-Luc were obtained from Stratagene. Chondrocytes were cultured in 24-well plates and 300 ng firefly luciferase reporter constructs were transiently transfected using transfection reagent TransExellent-DNA (Cenji Biotech Inc, China) following manufacturer’s instruction, and 15 ng of the Copia-Renilla luciferase reporter was co-transfected as a normalization control. Cells were treated with the indicated reagents for 48 h after transfection. The Dual-Luciferase measurements were performed in triplicate using the Luciferase assay kit (Promega) and a LUMIstar Omega luminometer (BMG Labtech, Mornington, Australia).
# [3] = test system: human articular cartilage explants; experiment: Human articular cartilage explant culture (S.O. staining, DMMB assay, qRT-PCR, immunohistochemistry); format: cell-based
# Source text: Human articular cartilage explants of OA patients undergoing total knee replacement surgery were collected (3 mm × 3 mm), with the approval of the Human Ethics Committee of Shanghai Sixth People’s Hospital (2021-048). The full thickness cartilage tissue samples were harvested from tibia plateau avoiding subchondral bone. We control the quality of the explants according to the principle mentioned below. (1) The human articular cartilage explants were harvested from the relatively intact region of the tibia plateau. (2) The explants from different patients were cut from the same position of tibia plateau avoiding subchondral bone. (3) The explants were cut in the size of 3 mm × 3 mm for the DMMB assay and the S.O. staining. (4) To avoid inter-patient and intra-patient sample heterogeneous, explants used within the same drug experiment (vehicle and treatment) must be collected in locations in close proximity and from the same patient. Each explant in the groups that treated with the same drug was from the same patient. The cartilage explants for Safranin-O/Fast-green (S.O.) staining and immunofluorescence were fixed in 4% paraformaldehyde (PFA) (wt/vol) overnight at 4 °C, embedded in paraffin, sliced (7 μm) and mounted on positively charged slides. The cartilage explants (3 mm × 3 mm) for DMMB assay and S.O. staining were harvested and placed in 24-well plates and cultured in 1 ml of serum-free F12 culture media for 24 h. n ≥ 4 patients were assessed. The media was then replaced with F12 culture media containing serum, added 1 ng/ml IL-1β, Celecoxib, Grapiprant, HL-43, and explants were cultured for a further 7 days. The culture media was collected for the release of glycosaminoglycans. To quantify GAGs, media were mixed with DMMB in formate buffer and absorbance at 535 nm was determined using a Spectramax plate reader (Molecular Devices, Sunnyvale, CA). […] We calculated the proteoglycan staining area using Image J with a region of interest of a 1 × 1 mm square, drawn at the edge of the cartilage surface under 10× objective. […]
# AP-1-Luc in ATDC5 cells = experiment: AP-1-Luc luciferase reporter assay; format: cell-based, mouse; settings: 2 ng/ml IL-1β, 30 μM HL-43, 6 h
# Protocol: as §2
# [4] = test system: cAMP in primary chondrocytes; experiment: cAMP assay; format: cell-based; settings: primary mouse chondrocytes, 2 h
# Protocol: The cAMP concentration of primary chondrocytes was detected by cAMP dynamic kit (Cisbio, France) following the manufacturer’s instructions. cAMP standards were diluted according to the kit instructions. Cells were treated with HL-43 for 2 h and the relative fold change of cAMP was determined by comparing with the cAMP standard curve.
# [5] = test system: Sox9 target genes in ATDC5 cells; experiment: qRT-PCR of Sox9 target genes in ATDC5 cells; format: cell-based, mouse; settings: 30 μM HL-43, 24 hr
# Protocol: as §1
# [6] = test system: mouse femoral head cartilage explants; experiment: Mouse femoral head cartilage explant culture; format: cell-based; settings: 1 ng/ml IL-1β, 48 h
structure (smiles),measurement,setting,value
C[C@H](NC(=O)c1c(-c2ccccc2)nnn1CCOc1ccc(F)cc1)c1ccc(C(=O)O)cc1 [HL-43],EP4 and STAT3 dependent increase in MMP3/13 expression,"[1]; 2 ng/ml IL-1β, 24 h",dose-dependently inhibited
same,"Expression of catabolic factors (Mmp3, Mmp9, and Mmp13)","[1]; primary mouse chondrocytes, 1 ng/ml IL-1β, 24 h","attenuated the expression of catabolic factors (Mmp3, Mmp9, and Mmp13) in a dose-dependent manner"
same,Expression of anabolic factors (Col2a1 and Acan),"[1]; primary mouse chondrocytes, 24 h",promoted the expression of anabolic factors
same,Col2a1 expression (screen of EP4 antagonists),"[1]; primary murine chondrocytes, 1 ng/ml IL-1β, 24 hr, EP4 antagonists (2 nM)",highest potency in inducing Col2a1 expression
same,Mmp3 expression (screen of EP4 antagonists),"[1]; primary murine chondrocytes, 1 ng/ml IL-1β, 24 hr, EP4 antagonists (30 μM)",reducing Mmp3 expression
same,4 × 48-p89-Luc reporter activity,[2],dose-dependently increased
same,Percentage area of proteoglycan by S.O. staining,"[3]; human OA cartilage explants, 1 week",increased with HL-43 treatment in a dose-dependent manner
same,"Immunohistochemistry of ACAN, SOX9, MMP13, COLX",[3]; human cartilage explants,"inducted anabolic factors (ACAN and SOX9), and suppressed catabolic factor (MMP13), and hypertrophic marker (COLX)"
same,"Expression of anabolic factors (COL2A1, ACAN, SOX9) and catabolic factor (MMP13), qRT-PCR","[3]; human explants, 1 ng/ml IL-1β, 24 h, Celecoxib 10 μM, Grapiprant and HL-43 30 μM",best efficacy
same,AP-1 luciferase reporter activity,AP-1-Luc in ATDC5 cells,not AP-1 or NF-κB
same,cAMP production,[4],dose-dependently induced cAMP production
same,"Sox9 target genes (Col2a1, Acan, Sox5, Col9a1, Col11a1, Col27a1, Dcn, Prg4), qRT-PCR",[5],upregulated
same,Mmp13 immunohistochemistry staining,[6],reduced immunohistochemistry staining for the catabolic marker Mmp13
same,Proteoglycan content by S.O. staining,[6],favorable effect on the proteoglycan content
